US20210186947A1, “TOMM6-INTERACTING EXTRACTS AND COMPOUNDS FOR USE IN THE TREATMENT AND PROPHYLAXIS OF NERVOUS SYSTEM DISEASES, ATHEROSCLEROSIS, HEPATITIS B INFECTION AND HUMAN PAPILLOMA VIRUS (HPV) INFECTION” (ETH ZURICH, priority 2018, published 2021)

Legend:
[1] = test system: angiotensin II AT2 receptor (AT2R, AGTR2); test: AT2R protein aggregation assay in HEK cells, immunoblot; type: cell-based, human; details: 10 microM for 72 h
Method: Proteins were also extracted from yeast cells and HEK cells expressing the indicated protein (i.e. HBsAg or AGTR2) as described above. Neuronal cell loss and hyperphosphorylated Tau in hippocampi of 15 months-old Tg2576 mice subjected to the CUMS protocol for 3 months was determined with crude homogenates of dissected hippocampi by direct binding assay with neuron-specific [^125I]-labeled anti-NeuN antibody (MAB377, clone A60, EMD Millipore, Merck KGaA, Darmstadt, Germany) and [^125I]-labeled AT8 antibody similarly as described (AbdAlla et al., J. Biol. Chem. 284, 6554-6565 (2009)).
In the second non-Abeta-based protein aggregation assay, different plant extracts were tested in a mammalian cell system, which analyzed the protein aggregation of the angiotensin II AT2 receptor (AT2R, AGTR2) protein in human embryonic kidney (HEK) cells. The system has physiological relevance because this cellular system is capable to reproduce AT2R protein aggregation, which also occurs in brains of AD patients and AD animal models (AbdAlla et al., J. Biol. Chem. 284, 6554-6565 (2009); AbdAlla et al., J. Biol. Chem. 284, 6566-6574 (2009)). The AT2 receptor in human embryonic kidney (HEK) cells forms stable dimers/oligomers under pro-oxidant conditions, which are resistant to urea-containing reducing SDS-PAGE (FIG. 2A, and AbdAlla et al., J. Biol. Chem. 284, 6566-6574 (2009)). […]

[2] = mouse, in vivo, po, 100 mg/kg/day
Tomm6 = biological target: T1, Tomm6 (Mus musculus, UniProt Q9CQN3); test: Immunoblot detection of hippocampal Tomm6 protein in treated Tg2576 mice; type: in vivo; details: aged Tg2576 mice treated for 6 months
T1 construct: hippocampi were isolated from 5-10 aged Tg2576 mice, pulverized under liquid nitrogen and solubilized; from tissue; host or cells: hippocampus of Tg2576 mice
T1 sequence (Q9CQN3 1-74): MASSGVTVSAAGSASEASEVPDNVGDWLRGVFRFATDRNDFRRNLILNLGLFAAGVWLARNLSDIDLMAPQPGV

[3] = test system: hippocampal neuronal cell bodies (NeuN); test: Hippocampal neuronal loss in Tg2576 mice subjected to CUMS, binding assay with [125I]-labeled anti-NeuN antibody; type: in vivo; details: 15 months-old Tg2576 mice, 3 months of CUMS, treated during CUMS; compounds 10 mg/kg/d
[4] = test system: hyperphosphorylated PHF-Tau; test: Hippocampal hyperphosphorylated PHF-Tau in Tg2576 mice subjected to CUMS, binding assay with [125I]-labeled AT8 antibody; type: in vivo; details: 15 months-old Tg2576 mice, 3 months of CUMS, treated during CUMS; compounds 10 mg/kg/d

- daily food intake / food consumption [2]: did not significantly alter
- hippocampal protein content of Tomm6 (Tomm6): substantially increased
SMILES: O=C(O)c1c(O)c(O)c2c(c1O)C(=O)c1ccccc1C2=O [Compound-2, purpurin-3-carboxylic acid]
- aggregation of the AT2 receptor [1]: inhibited the aggregation of the AT2 receptor
- hippocampal neuronal loss [3]: prevented the CUMS-induced hippocampal neuronal loss
- hippocampal content of hyperphosphorylated PHF-Tau [4]: inhibited hippocampal PHF-Tau hyperphosphorylation
